From patent US9096601B2 (CSPC Zhongqi Pharmaceutical Technology (Shijiazhuang) Co., …, priority 2010, dated 2015)

Columns and labels:
c-SRC = c-SRC (Homo sapiens (Human), UniProt P12931); assay: Kinase inhibitory activity, isotopic labeling (γ-33P-ATP); format: biochemical; conditions: compound at 10 μM
Protocol: (§1) The object of this assay was to test the inventive compounds for the kinase inhibitory activity in vitro. In this assay, an isotopic labeling method was used to label the γ phosphate group on ATP. EGFR (including wild type, L858R mutant type and L858R/T790M double mutant type), VEGFR2, ALK, BTK, c-KIT, c-SRC, MET, PDGFRα and FLT3 kinases were tested in vitro for the activity inhibition. Staurosporine was used as a reference molecule (or referred to as a positive control). […] The IC50 value can be obtained by the calculation of the inhibitory rates at a series of different concentrations of the tested compounds.
(§2) To a reaction tube were successively added the buffer solution (8 mM MOPS, pH 7.0, 0.2 mM EDTA, 10 mM MnCl2), the kinase to be tested (5-10 mU) (EGFR/ALK/BTK/c-KIT/c-SRC/MET/PDGFRα/VEGFR2), the substrate for the kinase to be tested (a reference material), 10 mM of the solution of magnesium acetate and γ-^33 P-ATP, and different concentrations of the tested compounds. […] The reaction was terminated with […] of the 3% phosphate buffer solution. 10 μL of the reaction liquid was titrated on the Filtermat A membrane. The membrane was washed with 75 mM of the phosphate solution thrice (5 minutes each time), and then with methanol once, and finally dried. The membrane was subjected to a scintillation counting. The value of the scintillation counting reflected the phosphorylation level of the substrate and therefore could characterize the inhibition of the kinase activity.

PDGFRα = PDGFRα (Homo sapiens (Human), UniProt P16234); assay: as above; format: biochemical; conditions: compound at 10 μM
Protocol: as §1, §2

FLT3 = FLT3 (Homo sapiens (Human), UniProt P36888); assay: as above; format: biochemical; conditions: compound at 10 μM
Protocol: as §1, §2

c-KIT = c-KIT (Homo sapiens (Human), UniProt P10721); assay: as above; format: biochemical; conditions: compound at 10 μM
Protocol: as §1, §2

BTK = BTK (Homo sapiens (Human), UniProt Q06187); assay: as above; format: biochemical; conditions: compound at 10 μM
Protocol: as §1, §2

ALK = ALK (Homo sapiens (Human), UniProt Q9UM73); assay: as above; format: biochemical; conditions: compound at 10 μM
Protocol: as §1, §2

VEGFR2 = VEGFR2 (Homo sapiens (Human), UniProt P35968); assay: as above; format: biochemical; conditions: ATP 90 μM (Km)
Protocol: as §1, §2

MET = MET (Homo sapiens (Human), UniProt P08581); assay: as above; format: biochemical; conditions: compound at 10 μM
Protocol: as §1, §2

[1] = system: colon cancer cell strain SW480; assay: In-vitro tumor cell proliferation inhibition, MTT; format: cell-based, human; conditions: 72 hours
Excerpt: (§3) The object of this assay was to test the inventive compounds for the inhibitory activity of in-vitro tumor cell proliferation. The MTT (tetreamethyl-azo-zole-salt) colorimetric method was used in this assay.
(§4) Human non-small cell lung carcinoma cell strains HCC827, PC-9, H1975 (EGFR L858R/T790M mutation) and H292 (EGFR WT), and other tumor type cell strains, including human acute myelogenous leukemia cell strain MV4-11, human chronic granulocytic leukemia cell strain K562, human squamous cell carcinoma cell strain A431, human breast carcinoma cell strains MDA-MB-468 and BT 474, human colon cancer cell strains SW480, HCT116 and SW620, human liver cancer cell strain Hep G2, human gastric cancer cell strain MK-45, and human malignant melanoma cell strain A375 used in this assay were all purchased from ATCC company, USA and kept in the laboratory. All of the above-mentioned non-small cell lung carcinoma cell strains and the breast carcinoma cell strain BT 474 were cultured with a RPMI-1640 complete culture medium containing 10% fetal bovine serum, 100 U/ml penicillin and 100 μg/ml streptomycin under 5% CO2 and at 37° C. The other cell strains were cultured with a DMEM complete culture medium containing 10% fetal bovine serum (having a MV4-11 cell content of 20%), 100 U/ml penicillin and 100 μg/ml streptomycin under 5% CO2 and 37° C.
(§5) A cell suspension having a cell concentration of 1-2×10^4 cells/ml was treated with a complete cell culture solution to adjust the cell concentration, wherein the cell concentrations for HCC827 and MV4-11 were adjusted to 6×10^4 cells/ml and 1×10^5 cells/ml respectively. The cell suspension was inoculated in a 96-well plate with 200 μl cell suspension/well and cultured overnight. Next day, the supernatant was drawn off and discarded. Then, the cells were treated with the tested compounds in a gradient concentration respectively. In the meanwhile, a negative control group free of the drug substance and an isovolumetric solvent control group (having a DMSO concentration of 1%) were used. The triplicate wells were used for each of dose groups. The culturing was conducted at 37° C. under 5% CO2. After 72 hours, […] having a concentration of 5 mg/ml was added to each of wells. The culturing was further conducted for 2-4 hours. The supernatant was discarded. Then […] was added to each of wells. The contents in the well were mixed homogenously by oscillation for 15 minutes. The absorbance (A) value was measured with a microplate reader at λ=570 nm (the A value is in the direct proportion to the number of living cells) and averaged. The relative cell proliferation inhibitory rate is (A570 control-group−A570 dose-group)/A570 control-group×100%. The assay was repeated for at least three times. The data was expressed as number average. The statistical data were analyzed using t-test. P<0.05 was considered significant. The cell proliferation inhibition of the following compounds was expressed as IC50 or inhibitory rate.

[2] = system: colon cancer cell strain SW620; assay: In-vitro tumor cell proliferation inhibition, MTT; format: cell-based, human; conditions: 72 hours
Excerpt: as §3, §4, §5

[3] = system: colon cancer cell strain HCT116; assay: In-vitro tumor cell proliferation inhibition, MTT; format: cell-based, human; conditions: 72 hours
Excerpt: as §3, §4, §5

[4] = system: gastric cancer cell strain MK-45; assay: In-vitro tumor cell proliferation inhibition, MTT; format: cell-based, human; conditions: 72 hours, read-out: MK45 (IC50)
Excerpt: as §3, §4, §5

[5] = system: breast carcinoma cell strain MDA-MB-468; assay: In-vitro tumor cell proliferation inhibition, MTT; format: cell-based, human; conditions: 72 hours
Excerpt: as §3, §4, §5

[6] = system: malignant melanoma cell strain A375; assay: In-vitro tumor cell proliferation inhibition, MTT; format: cell-based, human; conditions: 72 hours
Excerpt: as §3, §4, §5

[7] = system: acute myelogenous leukemia cell strain MV4-11; assay: In-vitro tumor cell proliferation inhibition, MTT; format: cell-based, human; conditions: 72 hours
Excerpt: as §3, §4, §5

[8] = system: liver cancer cell strain Hep G2; assay: In-vitro tumor cell proliferation inhibition, MTT; format: cell-based, human; conditions: 72 hours, read-out: HEPG2 (IC50)
Excerpt: as §3, §4, §5

[9] = system: squamous cell carcinoma cell strain A431; assay: In-vitro tumor cell proliferation inhibition, MTT; format: cell-based, human; conditions: 72 hours
Excerpt: as §3, §4, §5

[10] = system: chronic granulocytic leukemia cell strain K562; assay: In-vitro tumor cell proliferation inhibition, MTT; format: cell-based, human; conditions: 72 hours
Excerpt: as §3, §4, §5

[11] = system: breast carcinoma cell strain BT474; assay: In-vitro tumor cell proliferation inhibition, MTT; format: cell-based, human; conditions: 72 hours
Excerpt: as §3, §4, §5

[12] = system: non-small cell lung carcinoma cell strain HCC827; assay: In-vitro tumor cell proliferation inhibition, MTT; format: cell-based, human; conditions: 72 hours
Protocol: as §3
(§6) All of the above-mentioned non-small cell lung carcinoma cell strains and the breast carcinoma cell strain BT 474 were cultured with a RPMI-1640 complete culture medium containing 10% fetal bovine serum, 100 U/ml penicillin and 100 μg/ml streptomycin under 5% CO2 and at 37° C. The other cell strains were cultured with a DMEM complete culture medium containing 10% fetal bovine serum (having a MV4-11 cell content of 20%), 100 U/ml penicillin and 100 μg/ml streptomycin under 5% CO2 and 37° C.
as §5

[13] = system: non-small cell lung carcinoma cell strain H292 (EGFR WT); assay: In-vitro tumor cell proliferation inhibition, MTT; format: cell-based, human; conditions: 72 hours
Protocol: as §3, §6, §5

[14] = system: non-small cell lung carcinoma cell strain PC-9 (EGFR delE746-A750 deletion mutation); assay: In-vitro tumor cell proliferation inhibition, MTT; format: cell-based, human; conditions: 72 hours
Protocol: as §3, §6, §5

[15] = system: non-small cell lung carcinoma cell strain H1975 (EGFR L858R/T790M mutation); assay: In-vitro tumor cell proliferation inhibition, MTT; format: cell-based, human; conditions: 72 hours
Protocol: as §3, §6, §5

Sequence of MET (P08581 25-1390): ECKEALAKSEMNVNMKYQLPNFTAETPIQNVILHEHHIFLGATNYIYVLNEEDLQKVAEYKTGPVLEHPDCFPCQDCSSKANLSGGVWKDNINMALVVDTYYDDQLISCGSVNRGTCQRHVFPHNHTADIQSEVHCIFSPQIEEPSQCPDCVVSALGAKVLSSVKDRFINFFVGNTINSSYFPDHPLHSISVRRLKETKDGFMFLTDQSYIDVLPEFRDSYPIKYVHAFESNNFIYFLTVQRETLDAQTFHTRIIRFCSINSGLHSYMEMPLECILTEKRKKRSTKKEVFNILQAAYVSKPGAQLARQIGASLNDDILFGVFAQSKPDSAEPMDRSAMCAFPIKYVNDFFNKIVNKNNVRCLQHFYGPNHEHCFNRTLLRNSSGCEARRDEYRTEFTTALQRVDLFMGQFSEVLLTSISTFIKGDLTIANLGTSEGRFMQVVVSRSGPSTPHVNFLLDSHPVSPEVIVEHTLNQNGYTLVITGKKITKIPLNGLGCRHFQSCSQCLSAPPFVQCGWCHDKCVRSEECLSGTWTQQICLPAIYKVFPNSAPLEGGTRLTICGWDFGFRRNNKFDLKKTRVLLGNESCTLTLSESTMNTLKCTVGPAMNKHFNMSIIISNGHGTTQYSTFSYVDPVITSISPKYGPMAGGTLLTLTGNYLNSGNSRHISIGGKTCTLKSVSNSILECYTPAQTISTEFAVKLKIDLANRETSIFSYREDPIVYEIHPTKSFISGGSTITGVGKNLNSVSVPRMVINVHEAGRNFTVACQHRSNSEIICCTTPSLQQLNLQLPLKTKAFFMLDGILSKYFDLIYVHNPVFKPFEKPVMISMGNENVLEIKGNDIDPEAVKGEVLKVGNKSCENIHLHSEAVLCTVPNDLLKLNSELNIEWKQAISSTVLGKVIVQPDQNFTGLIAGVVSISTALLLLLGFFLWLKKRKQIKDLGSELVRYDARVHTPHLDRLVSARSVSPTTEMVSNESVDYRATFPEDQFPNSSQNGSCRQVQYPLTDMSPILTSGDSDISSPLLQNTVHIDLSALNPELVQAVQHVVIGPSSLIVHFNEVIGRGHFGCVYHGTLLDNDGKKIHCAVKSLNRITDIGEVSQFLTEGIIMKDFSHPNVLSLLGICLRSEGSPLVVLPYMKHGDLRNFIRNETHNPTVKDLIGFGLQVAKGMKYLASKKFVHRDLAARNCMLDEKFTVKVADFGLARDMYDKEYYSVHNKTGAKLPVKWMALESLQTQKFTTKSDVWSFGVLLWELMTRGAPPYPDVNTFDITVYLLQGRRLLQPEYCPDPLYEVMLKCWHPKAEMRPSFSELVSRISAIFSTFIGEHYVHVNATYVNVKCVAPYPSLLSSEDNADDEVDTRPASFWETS
Sequence of c-SRC (P12931 whole entry, looked up): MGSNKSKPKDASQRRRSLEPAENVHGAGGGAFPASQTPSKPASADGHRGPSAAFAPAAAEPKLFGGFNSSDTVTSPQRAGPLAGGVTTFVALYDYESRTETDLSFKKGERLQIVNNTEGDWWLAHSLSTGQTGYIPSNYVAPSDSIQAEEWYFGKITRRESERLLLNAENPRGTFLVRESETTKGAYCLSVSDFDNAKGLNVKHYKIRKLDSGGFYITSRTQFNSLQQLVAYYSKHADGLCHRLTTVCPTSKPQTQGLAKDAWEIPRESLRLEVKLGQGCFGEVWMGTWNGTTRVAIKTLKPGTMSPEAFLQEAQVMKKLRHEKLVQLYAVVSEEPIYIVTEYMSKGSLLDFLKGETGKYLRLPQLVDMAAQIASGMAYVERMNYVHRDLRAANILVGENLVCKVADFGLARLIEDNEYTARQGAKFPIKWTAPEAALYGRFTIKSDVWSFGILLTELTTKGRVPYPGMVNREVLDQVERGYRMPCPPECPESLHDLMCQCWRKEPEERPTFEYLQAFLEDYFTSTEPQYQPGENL
Sequence of PDGFRα (P16234 24-1089): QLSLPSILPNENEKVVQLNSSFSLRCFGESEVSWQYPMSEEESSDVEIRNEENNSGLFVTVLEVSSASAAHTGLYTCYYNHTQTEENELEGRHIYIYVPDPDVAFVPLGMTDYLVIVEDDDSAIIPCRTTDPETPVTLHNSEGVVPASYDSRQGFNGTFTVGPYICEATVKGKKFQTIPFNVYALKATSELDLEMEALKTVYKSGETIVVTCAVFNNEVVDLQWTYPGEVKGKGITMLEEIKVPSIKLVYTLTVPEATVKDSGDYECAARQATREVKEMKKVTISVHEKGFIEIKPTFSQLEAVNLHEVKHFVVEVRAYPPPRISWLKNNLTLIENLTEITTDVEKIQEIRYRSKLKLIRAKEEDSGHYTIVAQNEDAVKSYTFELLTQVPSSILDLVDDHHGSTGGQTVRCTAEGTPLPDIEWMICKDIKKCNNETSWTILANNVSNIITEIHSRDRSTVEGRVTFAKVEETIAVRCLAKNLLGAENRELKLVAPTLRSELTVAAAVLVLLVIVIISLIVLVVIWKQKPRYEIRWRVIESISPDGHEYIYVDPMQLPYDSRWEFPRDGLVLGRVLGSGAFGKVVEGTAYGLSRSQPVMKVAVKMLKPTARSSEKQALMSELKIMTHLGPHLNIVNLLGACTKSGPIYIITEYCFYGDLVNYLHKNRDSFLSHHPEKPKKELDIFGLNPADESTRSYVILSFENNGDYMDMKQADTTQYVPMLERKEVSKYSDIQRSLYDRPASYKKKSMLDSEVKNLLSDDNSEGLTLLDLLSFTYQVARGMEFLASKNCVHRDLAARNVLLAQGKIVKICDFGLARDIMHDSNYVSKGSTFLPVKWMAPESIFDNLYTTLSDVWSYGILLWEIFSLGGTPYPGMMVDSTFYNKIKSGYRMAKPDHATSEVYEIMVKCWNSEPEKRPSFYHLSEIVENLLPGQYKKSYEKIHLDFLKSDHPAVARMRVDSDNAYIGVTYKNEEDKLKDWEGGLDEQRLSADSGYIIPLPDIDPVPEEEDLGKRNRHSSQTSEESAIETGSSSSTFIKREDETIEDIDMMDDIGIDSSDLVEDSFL
Sequence of BTK (Q06187 whole entry): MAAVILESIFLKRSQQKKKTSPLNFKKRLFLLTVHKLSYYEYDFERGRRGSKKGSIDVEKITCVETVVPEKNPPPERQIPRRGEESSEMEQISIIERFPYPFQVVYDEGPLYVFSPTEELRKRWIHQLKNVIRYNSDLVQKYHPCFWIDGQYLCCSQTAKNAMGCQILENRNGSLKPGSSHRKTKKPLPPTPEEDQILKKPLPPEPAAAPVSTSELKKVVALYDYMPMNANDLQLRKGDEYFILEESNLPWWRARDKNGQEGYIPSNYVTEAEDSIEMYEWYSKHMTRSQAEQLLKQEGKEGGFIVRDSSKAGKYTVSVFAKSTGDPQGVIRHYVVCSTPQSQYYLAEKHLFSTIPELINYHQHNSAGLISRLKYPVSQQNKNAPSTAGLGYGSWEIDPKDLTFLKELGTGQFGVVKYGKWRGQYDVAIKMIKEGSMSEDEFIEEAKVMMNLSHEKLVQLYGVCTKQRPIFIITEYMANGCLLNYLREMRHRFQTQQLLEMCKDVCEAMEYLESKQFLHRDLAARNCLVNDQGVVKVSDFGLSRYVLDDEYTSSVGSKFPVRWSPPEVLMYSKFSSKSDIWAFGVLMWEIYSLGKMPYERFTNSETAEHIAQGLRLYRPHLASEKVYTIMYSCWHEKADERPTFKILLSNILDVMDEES
Sequence of FLT3 (P36888 27-993): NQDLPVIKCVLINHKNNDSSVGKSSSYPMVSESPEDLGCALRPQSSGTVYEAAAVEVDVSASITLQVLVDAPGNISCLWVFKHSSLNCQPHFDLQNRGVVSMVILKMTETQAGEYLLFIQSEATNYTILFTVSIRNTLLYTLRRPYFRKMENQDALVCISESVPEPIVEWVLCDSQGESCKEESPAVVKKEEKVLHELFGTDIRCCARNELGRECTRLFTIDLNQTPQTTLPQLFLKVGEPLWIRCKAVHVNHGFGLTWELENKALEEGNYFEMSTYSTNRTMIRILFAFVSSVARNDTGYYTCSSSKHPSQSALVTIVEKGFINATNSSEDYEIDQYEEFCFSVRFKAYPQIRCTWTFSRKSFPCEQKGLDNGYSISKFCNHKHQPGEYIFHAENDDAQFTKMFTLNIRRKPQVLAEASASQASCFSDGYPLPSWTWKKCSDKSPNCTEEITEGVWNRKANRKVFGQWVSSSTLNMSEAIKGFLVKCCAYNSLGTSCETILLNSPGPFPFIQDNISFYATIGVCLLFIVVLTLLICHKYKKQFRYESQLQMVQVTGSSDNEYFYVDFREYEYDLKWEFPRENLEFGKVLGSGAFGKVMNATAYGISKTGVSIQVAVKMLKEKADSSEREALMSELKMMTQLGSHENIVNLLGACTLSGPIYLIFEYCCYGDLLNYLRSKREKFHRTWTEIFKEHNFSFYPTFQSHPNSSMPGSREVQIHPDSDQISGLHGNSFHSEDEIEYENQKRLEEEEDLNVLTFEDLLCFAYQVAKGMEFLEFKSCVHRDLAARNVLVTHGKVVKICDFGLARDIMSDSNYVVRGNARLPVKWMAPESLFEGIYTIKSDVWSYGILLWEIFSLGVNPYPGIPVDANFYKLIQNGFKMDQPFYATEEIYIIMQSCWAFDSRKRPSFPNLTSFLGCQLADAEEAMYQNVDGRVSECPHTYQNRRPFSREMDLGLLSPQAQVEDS

SMILES	The kinase activity inhibitory rate (%) by the tested compounds at 10 μM c-SRC (c-SRC)	The kinase activity inhibitory rate (%) by the tested compounds at 10 μM PDGFRα (PDGFRα)	The kinase activity inhibitory rate (%) by the tested compounds at 10 μM FLT3 (FLT3)	The kinase activity inhibitory rate (%) by the tested compounds at 10 μM c-KIT (c-KIT)	The kinase activity inhibitory rate (%) by the tested compounds at 10 μM BTK (BTK)	The kinase activity inhibitory rate (%) by the tested compounds at 10 μM ALK (ALK)	IC50 (VEGFR2)	The kinase activity inhibitory rate (%) by the tested compounds at 10 μM MET (MET)	IC50 [1]	IC50 [2]	IC50 [3]	IC50 [4]	IC50 [5]	IC50 [6]	IC50 [7]	IC50 [8]	IC50 [9]	IC50 [10]	IC50 [11]	IC50 [12]	further results
CC(C)n1c(Nc2ccc(OCc3cccc(F)c3)c(Cl)c2)nc2cnc(Nc3ccc(N4CCN(C)CC4)cc3)nc21 [Compounds 8-19]	97%	34%	43%	12%	71%	90%	> 1000 nM	97%	> 10000 nM	1990 nM	> 1000 nM	1010 nM	9980 nM	1660 nM	4780 nM	5420 nM	9320 nM	2790 nM	4990 nM	912 nM	IC50 [13]: 316 nM; IC50 [14]: 459 nM; IC50 [15]: 7320 nM
CN1CCN(c2ccc(Nc3ncc4nc(Nc5ccccc5)n(C5CCCC5)c4n3)cc2)CC1 [Compounds 8-26]	99%	95%	86%	94%	99%	71%	7 nM	86%	3440 nM	282 nM	239 nM	> 1000 nM	299 nM	378 nM	93 nM	6260 nM	1050 nM	120 nM	107 nM	1.1 nM	IC50 [13]: 10.7 nM; IC50 [14]: 0.2 nM; IC50 [15]: 369 nM
